Reference: patent publication US20090270448A1, “PHARMACEUTICAL FORMULATIONS COMPRISING CLOPIDOGREL” (ACINO PHARMA AG, priority 2006, published 2009)
Counter-ions that a name gives are not always drawn.

What was measured:
[1] = Storage stability of clopidogrel besylate and melt granulates containing it (HPLC impurities); format: physicochemical
Method: The stability on storage of clopidogrel besylate salt (CLO.Bes) is examined in comparison to melt granulates containing it. The main degradation product is alpha-(2-chlorophenyl)-4,5,6,7-tetrahydrothieno[3,2-c]pyridine-5-acetic acid, hereinafter designated as “ImpA” (ImpA is named according to USP 29 and corresponds to the hydrolysis product of Clopidogrel). In addition, the sum of all impurities (“SumImp”) is determined. Both ImpA and SumImp are expressed as percent by weight of the amount of the clopidogrel salt at the beginning of the experiment on day 0 and are determined using the HPLC-system described below.
In the below Table 1 for example the term “10% PEG 6000” means the melt granulate consisting of 10% by weight PEG 6000 and 90% by weight clopidogrel besylate, 30% PEG 6000 means the melt granulate consisting of 30% by weight PEG 6000 and 70% by weight clopidogrel besylate, etc.
The above-mentioned HPLC system is as follows:
Column: 250 mm×4.6 mm Modulo-Cart QS Uptisphere HDO, 3 μm
Detector: UV Detector or DAD Detector
Eluent A: 0.01M sodium phosphate dibasic aqueous solution (1.78 g Na2HPO4*2H2O/l), adjusted to pH 3.0±0.05 with phosphoric acid 85%
Mobile phase: 35% Eluent A+65% Eluent B
Preparation of Reference and Sample Solutions:
Approximately 55.92 mg of clopidogrel besilate reference substance are weighed into a 50 ml volumetric flask. Add 20 ml of mobile phase and sonicate in an ultrasonic bath at ambient temperature until the substance is dissolved (approx. 5 min). Make up to the mark with mobile phase. The concentration of clopidogrel besilate is 0.75 mg/ml as free base. Two independent reference solutions are prepared.
Sample Solution for 75 mg Tablets
Weigh 10 tablets and transfer them quantitatively into a 250 ml volumetric flask. Dissolve and make up to the mark with mobile phase. Dilute 25.0 ml to 100.0 ml with mobile phase. Filter through a 0.45 μm PTFE-filter in a HPLC vial. The concentration of clopidogrel is 0.75 mg/ml as free base. Two independent sample solutions are prepared.

[2] = Storage stability of clopidogrel hydrochloride and melt granulates containing it (HPLC impurities); format: physicochemical
Method: The stability on storage of clopidogrel hydrochloride salt (CLO.HCl) has been examined in comparison to melt granulates containing it. The main degradation product is alpha-(2-chlorophenyl)-4,5,6,7-tetrahydrothieno[3,2-c]pyridine-5-acetic acid, hereinafter designated as “ImpA” (impurity acid). In addition, the sum of all impurities (“SumImp”) is determined by HPLC analogously as described above for clopidogrel besylate. Both ImpA and SumImp are expressed as percent by weight of the amount of the clopidogrel salt at the beginning of the experiment on day 0. The granulates mentioned in the below Table 2 are melt granulates consisting of 50% by weight of PEG 6000 and 50% clopidogrel hydrochloride, and 50% Compritol 888 ATO and 50% clopidogrel hydrochloride, respectively.

[3] = Day 0, percent by weight of the clopidogrel salt at day 0, HPLC
[4] = Day 15 at 50° C. and 75% relative humidity
[5] = Day 30 at 40° C. and 75% relative humidity

Row | Compound | ImpA [%] [1, 3] [%] | SumImp [%] ([1]; Day 0, sum of all impurities, percent by weight of the clopidogrel salt at day 0, HPLC) | ImpA [%] [1, 4] [%] | SumImp [%] [1, 4] [%] | SumImp [%] ([2]; Day 0) | ImpA [%] [2, 3] [%] | ImpA [%] [2, 5] [%] | SumImp [%] [2, 5] [%] | impurities relative to clopidogrel hydrochloride stabilized in the melt granulates ([2]; after storage for 30 days at 40° C. and 75% relative humidity)
1 | COC(=O)[C@H](c1ccccc1Cl)N1CCc2sccc2C1 [CLO•Bes, clopidogrel besylate] | 0.09 | 0.24 | 0.34 | 0.52 |  |  |  |  | 
2 | COC(=O)[C@H](c1ccccc1Cl)N1CCc2sccc2C1 [CLO•HCl, clopidogrel hydrochloride] |  |  |  |  | 0.58 | 0.18 | 1.28 | 1.99 | nearly twice as much impurities
